Data from the supplement of paper PMC10307832.

Columns and labels:
Assay in all cases: relative viability (nuclei count vs DMSO), 5 days (fraction); higher = more cells survive
XMD13-2 + Navitoclax = compound: C1CC1C(=O)NC2=NNC3=C2C=CC(=C3)C4=CC(=CC=C4)C(=O)NC5CC5 [XMD13-2] + CC1(C)CCC(c2ccc(Cl)cc2)=C(CN2CCN(c3ccc(C(=O)NS(=O)(=O)c4ccc(N[C@H](CCN5CCOCC5)CSc5ccccc5)c(S(=O)(=O)C(F)(F)F)c4)cc3)CC2)C1 [Navitoclax] (partner 0.5 µM)
How it was run: (§1)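 Relative viability is defined as nuclei in treated wells over nuclei in vehicle wells. Duplicate plates were run and medians reported. Lung cancer cell lines in 1536-well plates were dosed by pin tool one day after seeding, with one drug or with a fixed anchor-drug dose plus five library-drug doses (not always all listed) in √10 steps, and nuclei were counted after 5 days.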

XMD13-2 + Linsitinib = compound: C1CC1C(=O)NC2=NNC3=C2C=CC(=C3)C4=CC(=CC=C4)C(=O)NC5CC5 [XMD13-2] + C[C@]1(O)C[C@@H](c2nc(-c3ccc4ccc(-c5ccccc5)nc4c3)c3c(N)nccn32)C1 [Linsitinib] (partner 1 µM)
How it was run: as §1

Dasatinib + Foretinib = compound: Cc1nc(Nc2ncc(C(=O)Nc3c(C)cccc3Cl)s2)cc(N2CCN(CCO)CC2)n1 [Dasatinib] + COc1cc2c(Oc3ccc(NC(=O)C4(C(=O)Nc5ccc(F)cc5)CC4)cc3F)ccnc2cc1OCCCN1CCOCC1 [Foretinib] (partner 0.25 µM)
How it was run: as §1

ALW-II-49-7 + Vorinostat = compound: Cc1ccc(C(=O)Nc2cccc(C(F)(F)F)c2)cc1Nc1cncc(C(N)=O)c1 [ALW-II-49-7] + O=C(CCCCCCC(=O)Nc1ccccc1)NO [Vorinostat] (partner 1 µM)
How it was run: as §1

Cell Line	relative viability (XMD13-2 + Navitoclax; first compound 0.05 µM)	relative viability (XMD13-2 + Navitoclax; first compound 0.1581 µM)	relative viability (XMD13-2 + Navitoclax; first compound 0.5 µM)	relative viability (XMD13-2 + Navitoclax; first compound 1.581 µM)	relative viability (XMD13-2 + Navitoclax; first compound 5 µM)	relative viability (XMD13-2 + Linsitinib; first compound 0.05 µM)	relative viability (XMD13-2 + Linsitinib; first compound 0.1581 µM)	relative viability (XMD13-2 + Linsitinib; first compound 0.5 µM)	relative viability (XMD13-2 + Linsitinib; first compound 1.581 µM)	relative viability (XMD13-2 + Linsitinib; first compound 5 µM)	relative viability (Dasatinib + Foretinib; first compound 0.005 µM)	relative viability (Dasatinib + Foretinib; first compound 0.01581 µM)	relative viability (Dasatinib + Foretinib; first compound 0.05 µM)	relative viability (Dasatinib + Foretinib; first compound 0.1581 µM)	relative viability (Dasatinib + Foretinib; first compound 0.5 µM)	relative viability (ALW-II-49-7 + Vorinostat; first compound 0.08 µM)	relative viability (ALW-II-49-7 + Vorinostat; first compound 0.253 µM)	relative viability (ALW-II-49-7 + Vorinostat; first compound 0.8 µM)	relative viability (ALW-II-49-7 + Vorinostat; first compound 2.53 µM)	relative viability (ALW-II-49-7 + Vorinostat; first compound 8 µM)
SK-MES-1	1.26	1.32	1.21	1.24	1.2	1.11	1.03	1.01	1.01	1.16	1.01	0.73	0.687	0.482	0.231	1.14	1.16	1.05	1.04	0.938
NCI-H1944	1.08	1.05	1.08	1.11	1.17	1.24	1.18	1.26	1.29	1.34	0.849	0.684	0.701	0.291	0.21	0.659	0.613	0.497	0.478	0.377
HCC-78	0.851	0.641	0.817	0.582	0.671	0.696	0.587	0.603	0.548	0.461	0.549	0.461	0.384	0.302	0.249	0.428	0.358	0.408	0.342	0.485
PC-3 [JPC-3]	0.819	0.843	0.827	0.781	0.693	0.915	0.961	1.01	0.906	1.01	1.05	1.02	1.05	0.948	0.434	0.833	0.822	0.678	0.846	0.742
EKVX	1.17	0.869	0.859	0.973	0.997	1.16	0.911	0.992	0.871	1.05	0.757	0.84	0.753	0.455	0.135	0.407	0.747	0.734	0.678	0.636
NCI-H460	1.34	1.23	1.28	1.02	1.2	1.01	0.953	0.973	0.72	0.997	1.04	0.904	0.808	0.716	0.746	0.763	0.857	0.69	0.497	0.498
NCI-H727	0.462	0.362	0.372	0.374	0.3	0.219	0.25	0.439	0.312	0.25	0.616	0.512	0.431	0.278	0.185	1.16	1.33	1.02	1.14	1.12
NCI-H838	1.26	1.16	1.13	1.22	1.18	1.14	1.03	1.05	1.06	0.985	0.679	0.654	0.552	0.313	0.236	0.778	0.748	0.693	0.759	0.769
